Where two headings read alike, the source gives them in different places.
What was measured:
[1] = system: bloodstream trypomastigotes (BT) forms of T. cruzi (Y strain); parameters: method as in Martins et al., 2012 [14]; settings: ref Martins et al., 2012 [14], cited from earlier work; for SI (selective index: ratio between LC50/EC50 values): LC50 on mammalian cardiac cells / EC50 on BT forms; for EC50: mean ± SD, 24 h of incubation at 37°C, Y strain, read-out: EC50 (drug concentration which reduces the number of the parasites by 50%)
[2] = system: bloodstream trypomastigotes (BT) forms of T. cruzi (Y strain); experiment: Trypanocidal analysis in vitro on bloodstream trypomastigotes; format: cell-based, Trypanosoma cruzi; settings: for SI (selective index: ratio between LC50/EC50 values): LC50 on mammalian cardiac cells (24 h) / EC50 on BT forms; for EC50: mean ± SD, 24 h of incubation at 37°C, Y strain, read-out: EC50 (drug concentration which reduces the number of the parasites by 50%); for times more active than benznidazole: comparison of EC50 values on bloodstream trypomastigotes
Description: Y strain of T. cruzi was used throughout the experiments. Bloodstream forms were harvested by heart puncture from T. cruzi-infected Swiss mice at the peak of parasitemia.
For the in vitro analysis on trypomastigotes, the parasites were incubated at 310 K in the presence of increasing doses (0–200 μM) of each compound diluted in Dulbecco's modified Eagle's medium which was supplemented with 5% fetal bovine serum and 1 mM L-glutamine (DMES). After 24 h, death rates were determined by light microscopy through the direct quantification of live parasites using Neubauer chamber, and EC50 values (drug concentration which reduces 50% of the number of live parasites) were then calculated as reported.

[3] = target: T1, human serum albumin (HSA) (Homo sapiens, UniProt P02768); experiment: Quenching of HSA intrinsic fluorescence (Stern-Volmer); format: binding; settings: HSA 4 × 10^−6 mol L^−1, 296 K, pH 7.4; standard error 0.2 × 10^4 L mol^−1; corrected for inner filter effect
T1 construct: purchased Sigma-Aldrich
Description: (§1) Steady state fluorescence measurements were performed on a Varian-Agilent Cary Eclipse or a PTI QM1 fluorescence system. UV-Vis absorption spectra were obtained with an Agilent diode array spectrophotometer model 8452A. Fluorescence lifetimes were measured using IBH-Horiba-Jobin Yvon TCSPC system. NanoLEDs with 1.0 ns nominal pulse duration and 1 MHz repetition rate were used as light sources for exciting the intrinsic HSA or BSA fluorescence (283 nm) and NOR fluorescence (330 nm).
(§2) Quenching measurements of albumin fluorescence were taken in 3 mL of BSA or HSA (4 × 10^−6 mol L^−1) in phosphate buffer 10 mM at pH 7.4. The albumin solutions were titrated by successive additions of the complex stock solutions. The fluorescence emission spectra of BSA and HSA were measured using an excitation wavelength of 290 nm. Experiments were performed at ambient temperature (296 K) and pH 7.4.
(§3) In this section, the quenching of BSA and HSA fluorescence by Cu(II) ions, Cu(II)-bipy, Cu(II)-phen, and complexes 1 and 2 was monitored. All the UV absorption and emission spectra were registered. The fluorescence decay curves with excitation at 283 nm and emission at 340 nm were obtained in the absence of the quenchers, at an intermediary and at the final quencher concentration. The raw data are available in Supplementary Material available online at http://dx.doi.org/10.1155/2016/5027404. The fluorescence intensity was attenuated by absorption of the incident and emitted light. […] The fluorescence spectra were corrected using the following expression:(2) Fcorr=Fobs10^Aex+Aeml/2, where F corr and F obs are the corrected and observed fluorescence intensity, A ex and A em are the absorbance at the excitation and emission wavelengths, respectively, and ℓ is the optical path in cm.
(§4) Quenching of a fluorophore by a drug can occur by a static or dynamic process. Static or dynamic quenching at a single site can be described by the Stern-Volmer equation [36]:(3) F0/F=1+KSVQ, where F 0 and F are the fluorescence intensities of albumins in the absence and presence of complexes, respectively. [Q] is the quencher concentration, and K SV is the Stern-Volmer quenching constant, which is related to the bimolecular collisional process in dynamic quenching but is the association constant in static quenching. Stern-Volmer constants were obtained for the linear region of the plots (Table 3).

[4] = target: T2, bovine serum albumin (BSA) (Bos taurus, UniProt P02769); experiment: Quenching of BSA intrinsic fluorescence (Stern-Volmer); format: binding; settings: BSA 4 × 10^−6 mol L^−1, 296 K, pH 7.4; standard error 0.2 × 10^4 L mol^−1; corrected for inner filter effect
T2 construct: purchased Sigma-Aldrich
Description: as §1, §2, §3, §4

T2 sequence (P02769 25-607): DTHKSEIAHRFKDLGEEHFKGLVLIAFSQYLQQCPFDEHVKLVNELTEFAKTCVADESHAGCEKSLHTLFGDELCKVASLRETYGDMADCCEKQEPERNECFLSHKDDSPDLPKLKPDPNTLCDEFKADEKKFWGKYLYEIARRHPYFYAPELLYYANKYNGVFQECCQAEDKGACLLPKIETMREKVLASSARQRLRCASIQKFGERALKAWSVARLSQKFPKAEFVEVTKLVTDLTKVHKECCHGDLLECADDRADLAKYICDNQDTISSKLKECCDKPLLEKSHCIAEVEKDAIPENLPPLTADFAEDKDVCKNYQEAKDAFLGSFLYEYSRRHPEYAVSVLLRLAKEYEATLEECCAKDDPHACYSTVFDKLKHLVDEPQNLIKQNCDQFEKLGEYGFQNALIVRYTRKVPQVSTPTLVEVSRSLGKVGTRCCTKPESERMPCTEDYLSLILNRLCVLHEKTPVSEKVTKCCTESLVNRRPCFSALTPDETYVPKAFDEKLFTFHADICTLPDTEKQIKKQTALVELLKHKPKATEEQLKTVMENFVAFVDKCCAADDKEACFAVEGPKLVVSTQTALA
T1 sequence (P02768 25-609): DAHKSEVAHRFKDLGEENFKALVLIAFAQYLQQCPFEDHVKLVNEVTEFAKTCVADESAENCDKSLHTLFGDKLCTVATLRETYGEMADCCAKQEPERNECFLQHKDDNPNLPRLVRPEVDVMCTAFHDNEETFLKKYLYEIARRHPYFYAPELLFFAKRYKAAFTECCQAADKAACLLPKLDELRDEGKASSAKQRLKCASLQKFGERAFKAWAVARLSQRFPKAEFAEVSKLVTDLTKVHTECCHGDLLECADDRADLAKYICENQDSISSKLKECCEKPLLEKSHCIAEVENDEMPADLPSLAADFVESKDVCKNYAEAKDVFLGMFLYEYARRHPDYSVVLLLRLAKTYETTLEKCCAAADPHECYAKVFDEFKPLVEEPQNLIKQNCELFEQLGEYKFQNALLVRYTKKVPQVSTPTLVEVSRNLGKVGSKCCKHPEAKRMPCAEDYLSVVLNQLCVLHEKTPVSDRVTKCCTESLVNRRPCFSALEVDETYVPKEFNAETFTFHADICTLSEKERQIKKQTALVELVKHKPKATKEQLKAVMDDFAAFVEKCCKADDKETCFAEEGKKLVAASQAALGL

Molecule | SI (selective index: ratio between LC50/EC50 values) [1] | EC50 [1] [µM] | SI (selective index: ratio between LC50/EC50 values) [2] | EC50 ([2]; Trypanosoma cruzi) [µM] | K SV (Stern-Volmer constant) [3] [L/mol] | K SV (Stern-Volmer constant) [4] [L/mol] | EC50 [2] [µM] | times more active than benznidazole [2]
[Cl][Cu][Cl] [CuCl2] | 6 | 83 ± 3 |  |  |  |  |  | 
O=C(Cn1ccnc1[N+](=O)[O-])NCc1ccccc1 [Benznidazole] |  |  | 77 | 13 ± 2 |  |  |  | 
[Cl][Cu][Cl].c1ccc(-c2ccccn2)nc1 [[CuCl2(bipy)]] | 4.5 | 14 ± 7 |  |  | 50000 | 31000 |  | 
CCn1cc(C(=O)O)c(=O)c2cc(F)c(N3CCNCC3)cc21 [Norfloxacin, 1-ethyl-6-fluoro-1,4-dihydro-4-oxo-7-(1-piperazinyl)-quinoline-3-carboxylic acid] |  |  | >1.25 | 126 ± 30 |  |  |  | 
[CuCl2(NOR)] |  |  | 0.8 |  |  |  | 78 ± 12 | 
[CuCl2(phen)] | <4 | 7 ± 5 |  |  | 51000 | 35000 |  | 2-3 times
[CuCl2(phen)(NOR)]·3H2O [complex 2] |  |  | 2.68 |  | 49000 | 37000 | 4.4 ± 1.4 | 2-3 times
[CuCl(bipy)(NOR)]Cl·2H2O [complex 1] |  |  | 4 |  | 58000 | 30000 | 16 ± 4 | 
[Cu+2] [Cu(II)] |  |  |  |  | 29000 | 35000 |  | 

Source: paper PMC4746275, “Norfloxacin and N-Donor Mixed-Ligand Copper(II) Complexes: Synthesis, Albumin Interaction, and Anti-Trypanosoma cruzi Activity” (Bioinorganic Chemistry and Applications, 2016)
